From ChEMBL document CHEMBL5726080, “Substituted piperidine compounds and their use as orexin receptor modulators” (2017)
pKi: −log10 of the molar value.

Assay: Receptor Radioligand Binding Studies: Human Embryonic Kidney 293 cells (HEK293) stably expressing rat orexin 1 receptor (Genebank accession number NM_001525) or Chinese ovary cells (CHO) stably expressing […] were grown to confluency in DMEM (Hyclone, cat #SH30022), 10% FBS, 1×Pen/Strep, 1× sodium pyruvate, 10 mM HEPES, 600 μg/mL G418 and DMEM/F12 (Gibco, Cat #11039), 10% FBS, 1×Pen/Strep, 600 μg/mL G418 media, respectively on 150 cm2 tissue culture plates, washed with 5 mM EDTA in PBS (HyClone Dulbecco's Phosphate Buffered Saline 1× with Calcium and Magnesium, Cat #SH30264.01, hereafter referred to simply as PBS) and scraped into 50 ml tubes. After centrifugation (2K×G, 5 min at 4° C.), the supernatant was aspirated and the pellets frozen and stored at −80° C. Cells were resuspended in PBS in the presence of 1 tablet of protease inhibitor cocktail (Roche, Cat. #11836145001) per 50 mL. Each cell pellet from a 15 cm plate was resuspended in 10 mL, stored on ice, and homogenized for 45 sec prior to addition to the reactions. Competition binding experiments in 96 well polypropylene plates were performed using [3H]-(1-(5-(2-fluoro-phenyl)-2-methyl-thiazol-4-yl)-1-((S)-2-(5-phenyl-(1,3,4)oxadiazol-2-ylmethyl)-pyrrolidin-1-yl)-methanone) (Moraveck Corporation, specific activity=35.3 Ci/mmol), diluted to a 10 nM concentration in PBS (4 nM final). Compounds were solubilized in 100% DMSO (Acros Organics, Cat. #61042-1000) and tested over a range of 7 concentrations (from 0.1 nM to 10 μM). The final concentration of DMSO in the reactions is equal to or less than 0.1%. Total and nonspecific binding was determined in the absence and presence of 10 μM almorexant. The total volume of each reaction is 200 μL (20 μL of diluted compounds, 80 μL of [3H]-(1-(5-(2-fluoro-phenyl)-2-methyl-thiazol-4-yl)-1-((S)-2-(5-phenyl-(1,3,4)oxadiazol-2-ylmethyl)-pyrrolidin-1-yl)-methanone) diluted in PBS and 100 μL of the cell suspension). Reactions were run for 60 min at room temperature and terminated by filtration through GF/C filter plates (PerkinElmer, Cat. #6005174) presoaked in 0.3% polyethylenimine using the cell harvester (PerkinElmer Filtermate). The plates were washed 3 times by aspirating 30 ml PBS through the plates. Plates were dried in 55° C. oven for 60 min, scintillation fluid was added, and the radioactivity was counted on a Topcount (Packard).

SMILES | pKi
Cc1ccc(C(=O)N2CCC[C@@H](Nc3nnc(C(F)(F)F)s3)[C@@H]2C)c(-n2nccn2)n1 (relative stereo) | < 5.00
COc1ccc(C(=O)N2CCC[C@@H](Nc3ccc(C(F)(F)F)cn3)[C@@H]2C)c(Cl)n1 (relative stereo) | < 5.00
Cc1ccc(C(=O)N2CCC[C@@H](N(C)c3ccc(C(F)(F)F)cn3)[C@@H]2C)c(-n2nccn2)n1 (relative stereo) | < 5.00
COc1ccc(C(=O)N2CCC[C@@H](Nc3ncc(C(F)(F)F)cn3)[C@@H]2C)c(Cl)n1 (relative stereo) | < 5.00
